Values belong to the compound of their own block, whether it stands above or below them.
Legend:
[1] = target: T1, S1PR3 (Mus musculus, UniProt Q9Z0U9); experiment: Ratiometric calcium imaging in cultured DRG neurons; type: cell-based, mice; conditions: for calcium responses in cultured DRG neurons: S1P 100 nM, CYM 100 μM
T1 construct: attenuates S1P-evoked calcium responses in wild-type DRG sensory neurons; endogenous in cells; host or cells: cultured mouse dorsal root ganglion (DRG) neurons, wild-type
T1 sequence (Q9Z0U9 whole entry): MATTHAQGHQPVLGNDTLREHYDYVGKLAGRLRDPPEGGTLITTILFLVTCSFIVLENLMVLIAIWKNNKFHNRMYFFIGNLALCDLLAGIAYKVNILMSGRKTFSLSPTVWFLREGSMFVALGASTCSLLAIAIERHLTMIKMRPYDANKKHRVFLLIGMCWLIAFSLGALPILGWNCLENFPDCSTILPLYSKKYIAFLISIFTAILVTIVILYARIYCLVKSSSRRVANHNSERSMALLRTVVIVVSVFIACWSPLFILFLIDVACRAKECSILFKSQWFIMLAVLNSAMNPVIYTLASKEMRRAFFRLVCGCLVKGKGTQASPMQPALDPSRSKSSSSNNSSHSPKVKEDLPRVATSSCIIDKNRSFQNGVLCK
Description: FIG. 1A-1G. A. Graphical model illustrating the role of S1PR3-evoked itch in somatosensory neurons of the dorsal root ganglion (DRG). […] C. […] D. Venn diagram displaying overlap of S1P responsive neurons from ratiometric calcium imaging with known pruritogens and algogens in cultured DRG neurons. Pruritogens: HIS=histamine, CQ=chloroquine. Algogens: CAP=capsaicin, AITC=allyl-isothiocyanate. Data were collected from n>4,000 neurons. E. Scratching behavioral data for mice injected with 200 nM S1P or 0.1% methanol-PBS vehicle intradermally into the rostral back. WT=wild-type, A1 −/−=Trpa1-deficient knockout mice. Scratching behaviors were recorded 30 minutes post injection. […] G. S1pr3 transcript levels were quantified using qRT-PCR from skin of mice treated with vitamin D or ethanol control for 7 days to induce an atopic dermatitis-like condition. Data were normalized to Gapdh housekeeping gene. For all data, one way ANOVA was performed with a Tukey-Kramer post hoc statistical test. Tukey-Kramer values are reported and only p<0.05 were considered significant, ***=p<0.001. n.s.=not significant.

[2] = tested on: mice; experiment: Scratching behavior after intradermal injection into the rostral back; type: in vivo
[3] = tested on: KCNQ2/3 potassium channels (M channels); experiment: Excitability of mechanical nociceptor DRG neurons in vitro; type: cell-based; conditions: via S1PR3, through closure of KCNQ2/3 potassium channels
From the text: In situ RNA hybridization studies and protein localization studies indicate that S1pr3 is expressed in thermal nociceptors and mechanical nociceptors, as well as nociceptive free nerve endings in skin.

[4] = tested on: wild-type mice; experiment: Mechanical pain sensitivity (von Frey, tactile stimuli) in healthy wild-type mice; type: in vivo
From the text: Likewise, in S1pr3^−/− mice, radiant heat withdrawal latencies were normal.
Pharmacological manipulation of S1PR3 or reduction of S1P levels lessens mechanical pain sensation in wild-type mice without affecting innocuous touch.
Blockade of S1PR1 with the selective antagonist W146 has no effect on mechanosensitivity. Tonic levels of S1P in the skin are responsible for S1PR3-mediated mechanical pain sensation.

[5] = tested on: wild-type mice; experiment: Complete Freund's Adjuvant (CFA) model of chronic inflammation; type: in vivo
From the text: S1PR3 knockout mice treated with CFA fail to develop thermal hypersensitivity and display normal mechanical sensitivity due to their baseline defect in mechanical pain sensation. They also display lessened paw swelling, possibly due to decreased neurogenic inflammation. […] Loss of S1P production with acute SKI II injection into the CFA-treated paw also reverses CFA thermal hypersensitivity.

[6] = S1PR3-deficient (S1PR3 −/−) mice
[7] = wildtype mice (WT), compared to physiological saline control
[8] = wild-type mice, intradermal administration
[9] = wild-type mice, delivered to the hindpaw after induction of CFA pain

SMILES: O=C(c1cc(C2CC2)on1)N(C1CCCCC1)C1CCCCC1 [CYM 5541]
calcium responses in cultured DRG neurons [1, 6]: lack calcium responses
calcium responses in cultured DRG neurons [1, 7]: robust responses

SMILES: Oc1ccc(Nc2nc(-c3ccc(Cl)cc3)cs2)cc1 [SKI II, 2-(p-hydroxyanilino)-4-(p-chlorophenyl)thiazole]
mechanical pain sensitivity after block of local production of S1P ([4]; injection of 50 μM): mechanical pain sensitivity was dependent on local S1P in the skin
CFA thermal hypersensitivity ([5]; acute injection into the CFA-treated paw): reverses

SMILES: CCCCCCc1cccc(NC(=O)[C@H](N)CCP(=O)(O)O)c1 [W146]
mechanosensitivity [4, 8]: no effect

More lines, main results first:

calcium responses in cultured DRG neurons [1, 6]: lack calcium responses
calcium responses in cultured DRG neurons [1, 7]: robust responses
SMILES: CCCCCCCCCCCCC/C=C/[C@@H](O)[C@@H](N)COP(=O)(O)O [S1P, Sphingosine-1-phosphate]
scratching behavior vs. vehicle ([2]; S1PR3-deficient mice (S1PR3 −/−), 200 nM intradermally, 30 minutes post injection): no difference
scratching behavior ([2]; mice (FIG. 1E), S1PR3-dependent opening of TRPA1): leads to scratching behavior in mice
excitability of mechanical nociceptor DRG neurons [3]: increases the excitability

effect on S1P-evoked calcium responses ([1]; wild-type DRG sensory neurons): attenuates
effect on the effects of the allosteric agonist CYM (calcium imaging) ([1]; wild-type DRG sensory neurons): does not block
SMILES: CC(C)(C)C(=O)C(=Nc1ccc(Cl)cc1)NNc1ccc(Cl)cc1 [TY 52156, N-(4-Chlorophenyl)-3,3-dimethyl-2-oxobutanimidic 2-(4-chlorophenyl) hydrazide]
mechanosensitivity [4, 8]: promotes mechanical hyposensitivity
responsiveness to noxious tactile stimuli [4, 8]: decreases responsiveness
mechanical thresholds [5, 9]: to pre-CFA, baseline levels
thermal thresholds [5, 9]: to pre-CFA, baseline levels

Reference: patent US20180110757A1, “METHODS OF TREATING PRURITIS AND PAIN” (The Regents of the University of California, priority 2016, published 2018)
